Test results: US7498360B2, “Method and compositions for local treatment of Meniere's disease, tinnitus and/or hearing loss” (Synphora AB, priority 2001, dated 2009)

Key:
[1] = test system: vasculature in the cochlea; settings: in vivo; cited from earlier work
[2] = test system: patients with Meniere's disease; settings: two patients with Meniere's disease, with furosemide; cited from earlier work
[3] = test system: patients suffering from unilateral Meniere's disease; assay: Randomised, double-masked, placebo-controlled crossover clinical trial with latanoprost in Meniere's disease; type: in vivo, human; settings: for vertigo, visual analogue scale: decreasing values reflecting improvement
Protocol: During the priority year, a randomised, double-masked, placebo-controlled clinical trial was performed by the inventors of the present patent application. Nine patients (5 males and 4 females; age 39-65 years) suffering from unilateral Meniere's disease were treated daily for three consecutive days with latanoprost (around 50 micrograms/ml) or placebo adopting a crossover design. Accordingly, each patient was treated with both latanoprost and placebo in random order. Each treatment period lasted for 3 days, and after that the patients were examined at days 5 and 15 from the start of the treatment. Approximately 1 month elapsed between the two treatment periods (washout period). The treatment was given by intratympanic injection (around 0.2-0.8 ml) into the middle ear essentially as described above. Several parameters/symptoms were registered and followed, in particular the following: Pure tone average (decibels), discrimination value (%), tinnitus loudness (decibels), and by using visual analogue scale technique; subjective hearing ability, tinnitus and vertigo. The patients recorded the three last mentioned parameters daily, and the means over the periods 2-5 days and 2-15 days after initiation of treatment with latanoprost and placebo were computed.
Such improvement was never observed during placebo treatment. At day 15 the mean discrimination value after latanoprost treatment was 68.2±7.2%, while it was 52.9±1.5% after placebo treatment, the difference of 29% being statistically significant at the p<0.05 level. Likewise, a statistically significant (p<0.01) improvement in pure tone average value at day 15 was found after latanoprost treatment in comparison to placebo, the values being 58.9±3.6 and 64.3±3.5 decibels, respectively (a lower value representing improvement). Finally, at least seven out of the nine patients experienced less vertigo both during the immediate period (days 2-5) after initiation of the latanoprost treatment as well as during a longer period (days 2-15) after the initiation of the latanoprost treatment. The values on the visual analogue scale (in mm; decreasing values reflecting improvement, i.e. less sensation of vertigo) were as follows: Days 2-5 latanoprost treatment: 22.4±9.1, and placebo treatment: 33.5±10.8 (p<0.05); Days 2-15 latanoprost treatment: 24.2±10.0 and placebo treatment: 34.2±11.4 (p<0.05).

[4] = test system: patients suffering from unilateral Meniere's disease; assay: Local (intratympanic) administration of latanoprost to two patients suffering from Meniere's disease; type: in vivo, human; set-up: key to Tinnitus (grade): 0 = none; 1 = mild; 2 = moderate; 3 = marked; settings: for Tinnitus (grade): After (7 or 13 days after start of treatment), before: 3; for Acoustic emissions (%) 1 kHz / Acoustic emissions (%) 2 kHz / Acoustic emissions (%) 3 kHz / Acoustic emissions (%) 4 kHz / Acoustic emissions (%) 5 kHz / Acoustic emissions (%) Total reproducibility: After; for Acoustic emissions (%) 1 kHz / Acoustic emissions (%) 2 kHz / Acoustic emissions (%) 3 kHz / Acoustic emissions (%) 4 kHz / Acoustic emissions (%) 5 kHz: before: 0; for Subjective hearing ability: after treatment
Protocol: […] About 0.3-0.4 ml of a sterile Xalatan® (0.005% latanoprost) solution was administered by intratympanic installation in close apposition to the round window after appropriate local anaesthesia. The patients were thereafter asked to lie on the side with the treated ear up for about 30 min to enhance the penetration of latanoprost into the internal ear. The patients had at least 40 decibel decrease in the audiogram at 0.5, 1 and 2 kHz frequency, at baseline before treatment with latanoprost. In addition they suffered from episodes of vertigo and nausea in combination with tinnitus. Audiograms, and cochlear emissions were recorded before the treatment and at the 7th or 13th day after the start of the treatment, and information about the subjective symptoms were collected.

[5] = test system: endolymphatic duct structures / inner ear of pigmented guinea pigs; assay: Intratympanic administration of latanoprost to guinea pigs: tolerability, brain stem audiometry and morphology of the endolymphatic duct structures; type: in vivo, guinea pig
Protocol: Four pigmented guinea pigs of either sex weighing around 200-300 grams were anaesthetised with pentobarbital for intratympanic (into the middle ear) administration of latanoprost, and for brain stem audiometric measurements. The audiometric measurements were carried out at 8, 16 and 32 kHz frequency before and after the administration of latanoprost (58 μg/ml; a total of 250 μl/injection corresponding to about 14 μg latanoprost) and the vehicle. Latanoprost was administered once daily for three days into one ear, while the other ear received a similar injection of the vehicle only, and on the fourth day the animals were euthanatized with an overdose of the anaesthetic. The middle ears were dissected and the mucus membranes were inspected. Thereafter the inner ear was removed and the labyrinth was perfusion fixated through the oval and round windows with a 3% buffered glutaraldehyde solution. The tissues were then immersion fixated for about 24 hours in the same solution, and decalcified in 0.1 M sodium EDTA solution for about 2 weeks. The tissues were thereafter prepared according to routine techniques for light microscopy, and ultrathin sections of Epon-embedded tissue pieces were cut for transmission electron microscopy.
Most importantly, in several animals clear-cut changes in the morphology around the endolymphatic duct were detected. […] These findings were corroborated by 3 persons. […] Similar effects have previously been seen in the ciliary muscle of the eye after topical treatment with latanoprost and other prostaglandins (Lütjen-Drecoll and Tamm, 1989; Lindsey et al., 1998; Stjernschantz et al., 1998).

[6] = visual analogue scale, latanoprost vs placebo
[7] = two patients, after administration

## CCCCC[C@H](O)/C=C/[C@@H]1[C@@H](C/C=C\CCCC(=O)O)[C@@H](O)C[C@H]1O [PGF2α]
[1]
  effect on the vasculature in the cochlea: no effect

## COc1ccc2c(c1)c(CC(=O)O)c(C)n2C(=O)c1ccc(Cl)cc1 [indomethacin]
[2]
  effect on the discrimination score: block the effect of furosemide

## CC(C)OC(=O)CCC/C=C\C[C@@H]1[C@@H](CC[C@@H](O)CCc2ccccc2)[C@H](O)C[C@@H]1O [latanoprost, 13,14-dihydro-17-phenyl-18,19,20-trinor-PGF2α-isopropyl ester]
[3]; Days 2-5, placebo 33.5±10.8, p<0.05
  vertigo, visual analogue scale: 22.4±9.1 mm
[3]; Days 2-15, placebo 34.2±11.4, p<0.05
  vertigo, visual analogue scale: 24.2±10.0 mm
[3]; both days 2-5 and days 2-15 after initiation of treatment
  patients (out of nine) who experienced less vertigo: at least seven
[3]; clinical trial
  cochlear emissions: variable results
[3]; day 15, p<0.05
  difference in mean discrimination value versus placebo: 29%
[3]; day 15, placebo 52.9±1.5%, p<0.05
  mean discrimination value: 68.2±7.2%
[3]; day 15, placebo 64.3±3.5, p<0.01, lower value representing improvement
  pure tone average value: 58.9±3.6 decibels
[3]; in three of the nine patients, after latanoprost treatment
  improvement in discrimination value: 25-50%
[3]; latanoprost vs placebo
  tinnitus loudness: No statistically significant change
[3]; [6]
  Subjective hearing ability: No statistically significant change
  subjective experience of tinnitus: No statistically significant change
[4]; patient one
  Tinnitus (grade): 1
  Acoustic emissions (%) 1 kHz: 45%
  Acoustic emissions (%) 2 kHz: 0
  Acoustic emissions (%) 3 kHz: 42%
  Acoustic emissions (%) 4 kHz: 0
  Acoustic emissions (%) 5 kHz: 0
  Subjective hearing ability: Improved
[4]; patient one, before: 5
  Acoustic emissions (%) Total reproducibility: 37%
[4]; patient two
  Tinnitus (grade): 2
  Acoustic emissions (%) 1 kHz: 0%
  Acoustic emissions (%) 2 kHz: 57%
  Acoustic emissions (%) 3 kHz: 0%
  Acoustic emissions (%) 4 kHz: 0%
  Acoustic emissions (%) 5 kHz: 0%
  Subjective hearing ability: Improved
[4]; patient two, before: 10
  Acoustic emissions (%) Total reproducibility: 37%
[4]; [7]
  audiograms: no significant change
  cochlear emissions: significantly improved
  patients' condition with respect to the tinnitus and hearing ability: marked improvement
[5]; guinea pig, 8, 16 and 32 kHz, before and after intratympanic administration
  brain stem audiograms: no changes that could be attributed to the treatment
[5]; guinea pig, in several animals, zone around fibroblasts in loose connective tissue surrounding the duct
  morphology around the endolymphatic duct: reduced density of the extracellular matrix
[5]; guinea pig, intratympanic, about 14 μg once daily for three days
  morphological changes in the cochlea including the organ of Corti with the hair cells: no morphological changes
[5]; guinea pig, intratympanic, about 14 μg once daily for three days, examined day 4
  inflammatory changes in the mucous membranes of the middle ear or in the tympanic membrane: No inflammatory changes
[5]; guinea pig, intratympanic, once daily for three days
  tolerability: well tolerated
